What was measured:
A375 melanoma cells = assay: Antiproliferation assay in A375 cell line by CellTiter Glo; type: cell-based; conditions: Homo sapiens, A-375, 72 hours or 144 hours
Method: In vitro anti-proliferation study of test compounds in A375 cell line by CellTiter Glo. The cells were routinely maintained as a monolayer culture in corresponding culture medium, at 37° C. with 5% CO2 in air.
Harvest the exponential growth cells by trypsin-EDTA digestion. Re-suspend the cell pellet in fresh culture medium, and adjust the concentration to needed (the cell density per well was listed in following form). The cell viability is over 98% by Trypan blue staining. Inoculate cells into 96 wells plates according to the plate map (90 μL/well). Incubate the plates at 37° C. and 5% CO2 overnight. The next day, prepare the 10×compound containing medium according to the plate map. Transfer 10 μL of 10×compound containing medium into each well of the assay plates (the final DMSO concentration is 0.5%). Gently mix the medium and incubate at 37° C. and 5% CO2 for another 72 hours or 144 hours.
Prepare the reagent according to the manufacture's instruction. Add 50 μL CellTiter-Glo Reagent in each well. Mix contents for 2 minutes on an orbital shaker to induce cell lysis. Allow the plate to incubate at room temperature for 10 minutes to stabilize luminescent signal. Transfer 100 μL of reaction contents of each well from the clear plates into white walled/white opaque 96-well plates. Record the luminescence on Envision.
Using the luminescence measurements [time zero (T0), control growth (C), and test growth in the presence of drug at the six concentration levels (Ti)], the percentage growth is calculated at each of the drug concentrations levels.
Percentage growth inhibition (GI) is calculated as: GI (%)═[(Ti-T0)/(C-T0)]×100 for concentrations for which Ti>=T0, and GI (%)═[(Ti-T0)/T0]×100 for concentrations for which Ti<T0. Data were analyzed using the XLFit (Excel) tool, fitting to a 4-parameter equation to generate concentration response curves. Concentration of compound that inhibits 50% of control cell growth (GI50) was back-interpolated when y=50% of net growth of DMSO treated control wells using nonlinear regression with the equation: f(x) 205 [fit=(A+((B−A)/(1+((C/x)^))))], where A is the minimum response (Ymin), B is the maximum response (Ymax), C is the inflection point of the curve (Re GI50) and D is the Hill coefficient. Growth inhibition of 50% (GI50) was calculated at the 50% Growth inhibition on the curve. Index values were the sum of Inhibition rate (IR) at each tested compound concentration.

[1] = Caco-2 Permeability Assay; type: in vitro ADME; conditions: human; for efflux ratio at 120 min: Caco-2; for Papp A→B at 120 min: Caco-2, apical to basolateral; for Papp A→B at 120 min / Papp B→A at 120 min: 1-30 μM; for Papp B→A at 120 min: Caco-2, basolateral to apical
Method: Caco-2 cells are widely used as an in vitro assay to measure the permeability of a drug compound. The Caco-2 cell line is derived from a human colorectal carcinoma, and when cultured, the cells spontaneously differentiate into monolayers of polarized enterocytes. Caco-2 cells express P-glycoprotein and breast cancer resistance protein, two of the most relevant cell membrane active transporters that affect drug compound's permeability into cells and blood brain barrier.
The cells are seeded on Millipore Millicell plates and form a confluent monolayer over 20 days prior to the experiment. On day 20, the test compound (1-30 μM concentration) is added to the apical side of the membrane and the transport of the compound across the monolayer is monitored over a 120 minutes time period. To study drug efflux, it is also necessary to investigate transport of the compound from the basolateral compartment to the apical compartment.
The permeability coefficient (Papp) is calculated from the following equation: Papp=[(dQ/dt)/C0×A] where dQ/dt is the rate of permeation of the drug across the cells, C0 is the donor compartment concentration at time zero and A is the area of the cell monolayer. C0 is obtained from analysis of the dosing solution at the start experiment.

[2] = Mouse Pharmacokinetics Study; type: in vivo; conditions: CD-1 mice; for F / AUC / Cmax / Tmax: PO 25 mg/kg; for Vd / half-life / clearance / AUC / Cmax / Tmax: mouse, plasma; for Vd / half-life / clearance: IV 2.5 mg/kg; for half-life: 20% Hydroxypropyl-beta-cyclodextrin; for clearance: read-out: Clp
Description: The pharmacokinetic properties of selected compounds were studied CD-1 mice via intravenous and oral administration by using a standard protocol. The test articles were formulated in 20% Hydroxypropyl-beta-cyclodextrin, either as a clear solution or fine suspension.

HT-29 colon cancer cells = assay: Antiproliferation assay in HT-29 cells by CellTiter Glo; type: cell-based; conditions: Homo sapiens, 72 hours or 144 hours
P-glycoprotein (MDR1) = assay: MDCK-MDR1 Permeability Assay; type: in vitro ADME, canine; conditions: dog; for efflux ratio at 120 min: MDCK-MDR1, Papp(B-A)/Papp(A-B); for Papp A→B at 120 min: MDCK-MDR1, apical to basolateral; for Papp A→B at 120 min / Papp B→A at 120 min: 1-30 μM; for Papp B→A at 120 min: MDCK-MDR1, basolateral to apical
Method: MDCK-MDR1 cells originate from transfection of Madin Darby canine kidney (MDCK) cells with the MDR1 gene, the gene encoding for the efflux protein, P-glycoprotein. This cell line is ideal for identifying substrates of P-gp, with or without an inhibitor. The cells are seeded on a Multiscreen™ plate to form a confluent monolayer over 4 days prior to the experiment. On day 4, the test compound (1-30 μM concentration) is added to the apical side of the membrane and the transport of the compound across the monolayer is monitored over a 120 minutes time period. To study drug efflux, it is also necessary to investigate transport of the compound from the basolateral compartment to the apical compartment and calculate an efflux ratio.
The permeability coefficient (Papp) is calculated from the following equation: Papp=[(dQ/dt)/C0×A] where dQ/dt is the rate of permeation of the drug across the cells, C0 is the donor compartment concentration at time zero and A is the area of the cell monolayer.
An efflux ratio is calculated from the mean apical to basolateral (A-B) Papp data and basolateral to apical (B-A) Papp data. Efflux Ratio=Papp(B−A)/Papp(A−B)

GI50 (A375 melanoma cells) | efflux ratio at 120 min [1] | Papp A→B at 120 min [1] | Papp B→A at 120 min [1] | F [2] | Vd [2] | half-life [2] | clearance [2] | AUC [2] | Cmax [2] | Tmax [2] | GI50 (HT-29 colon cancer cells) | efflux ratio at 120 min (P-glycoprotein (MDR1)) | Papp A→B at 120 min (P-glycoprotein (MDR1)) | Papp B→A at 120 min (P-glycoprotein (MDR1)) | SMILES
< 100 nM | 0.36 | 52.9 ×10⁻⁶ cm/s | 19.2 ×10⁻⁶ cm/s | 113 ± 11.1% | 0.948 ± 0.166 L/kg | 72.6 ± 6 min | 9.03 ± 1.31 mL/min/kg | 53800 ± 5210 ng·h/mL | 11700 ± 2380 ng/mL | 30 min | < 100 nM | 1.68 | 24.1 ×10⁻⁶ cm/s | 40.5 ×10⁻⁶ cm/s | CCCS(=O)(=O)Nc1cccc(Oc2ccc3c(c2)C2=NCCCN2C=N3)c1Cl [Compound 21, N-(2-Chloro-3-((3,4-dihydro-2H-pyrimido[1,2-c]quinazolin-10-yl)oxy)phenyl)propane-1-sulfonamide]
< 100 nM | 0.31 | 43.5 ×10⁻⁶ cm/s | 13.5 ×10⁻⁶ cm/s | 58.9 ± 21.5% | 1.22 ± 0.16 L/kg | 28 ± 0.72 min | 30.3 ± 4.64 mL/min/kg | 8220 ± 3000 ng·h/mL | 4220 ± 1350 ng/mL | 15 min | 100 to 1000 nM | 1.42 | 26.3 ×10⁻⁶ cm/s | 37.2 ×10⁻⁶ cm/s | CCCS(=O)(=O)Nc1cccc(Oc2ccc3c(c2)C2=NCCN2C=N3)c1Cl [Compound 6, N-(2-Chloro-3-((2,3-dihydroimidazo[1,2-c]quinazolin-9-yl)oxy)phenyl)propane-1-sulfonamide]
